Like-named read-outs stand apart in the source and are kept apart here.
Key:
gastric juice = assay: Acute Shay test (pylorus ligation); assay type: in vivo, rat; conditions: rats, 8 mg/kg intraperitoneally
Procedure: Twenty acute Shay tests were performed on male rats weighing 250 to 300 g. The pylorus of each of the animals was ligated 2 hours before the slaughter. The pH and volume of the gastric juice were determined. […] In the control group, pH of the gastric juice was 2.2, and the average HCl output was 0.12 mEq per animal. In the experimental animals, pH of the gastric juice was 1.6, and the HCl output was 0.41 mEq.

Bulbar Conjunctiva = tested on: Bulbar Conjunctiva; design: species or system guinea pigs, rabbits; conditions: in vivo
Excerpt: C. Irritant Action of 1-5% Solutions On
intramuscular injection

Respiration = assay: Effects on depth and rate of respiration; assay type: in vivo, rabbits and cats
Excerpt: E. Effects on Depth and Rate of
Respiration (rabbits and cats)

[1] = tested on: gastric secretion of patients with duodenal ulceration; assay: Clinical comparison in patients with duodenal ulceration; assay type: in vivo, human
Excerpt: (§1) Special attention was paid to side effects and the reproductibility of the secretory response after repeated administrations of the drug.
Histamine and Pentagastrin Upon Main Gastric Secretion
Characteristics of Patients With Duodenal Ulceration

Male guinea pigs = assay: Chronic toxicity, daily intravenous injections in guinea pigs; assay type: in vivo
Excerpt: Male guinea pigs weighing 200-250 g
1. Daily intravenous injections of thidazine

H2 -ceptors = H2 -ceptors (Canis lupus familiaris, UniProt P17124); assay: Gastric secretion in dogs with gastric fistula, intramuscular injection
Chain of H2 -ceptors (P17124 whole entry): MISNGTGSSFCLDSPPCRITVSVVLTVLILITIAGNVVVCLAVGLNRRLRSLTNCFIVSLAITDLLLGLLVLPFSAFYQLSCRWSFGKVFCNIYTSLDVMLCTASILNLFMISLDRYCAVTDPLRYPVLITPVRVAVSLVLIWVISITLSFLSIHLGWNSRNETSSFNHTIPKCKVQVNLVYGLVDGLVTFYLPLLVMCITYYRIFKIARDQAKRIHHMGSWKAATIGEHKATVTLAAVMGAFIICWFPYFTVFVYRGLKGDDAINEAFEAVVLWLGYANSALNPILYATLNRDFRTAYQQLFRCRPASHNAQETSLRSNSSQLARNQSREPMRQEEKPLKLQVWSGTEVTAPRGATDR
Procedure: Chronic experiments were performed on male dogs weighing 20 to 25 kg and having a gastric fistula; prior to experiments, the animals were starved for 18 hours.
The gastric juice was analyzed for titratable acidity and proteolytic activity. The hydrochloric acid output was calculated in milliequivalents (mEq) and that of pepsin in milligrams.

gastric secretion = assay type: in vivo, human
Excerpt: as §1
The clinical investigation also helped to determine effective doses of the proposed preparation for submaximum and maximum tests and different forms of administration.

[2] = tested on: gastric secretion of patients; assay: Clinical comparison of thidazine with simple histamine test; assay type: in vivo, human; conditions: 20 patients; thidazine 1.5 mg/kg parenteral, histamine 0.01 mg/kg; >0.05
Excerpt: as §1

[3] = tested on: gastric secretion of patients of middle age group; assay: Clinical test: effects of maximum doses upon gastric secretion of patients; assay type: in vivo, human; conditions: 2mg/kg; for Gastric Juice, Δ% / HCl Concentration, Δ% / Hourly HCl output, Δ%: 2nd versus 1st hour
Excerpt: as §1

male rabbits = conditions: rabbit, in vivo
Procedure: | D. Allergic Action | (Arthus-Sakharov Phenomenon) | Daily injections to male rabbits | weighing 3.0 kg, during 6 to 7 days: | test group, hypodermic injections of | 0.1 ml of 1% solution | control group, injections of 0.1 ml | of normal horse serum

arterial pressure = assay: Arterial pressure in anesthetized cats
Procedure: These experiments were performed on 11 cats weighing 2.5 to 4.0 kg and anesthetized with urethane-chlorazol mixture containing 60 mg/kg of chlorazol and 600 mg/kg of urethane. The arterial pressure was measured in the common carotid artery with the aid of a mercury pressure gauge.

H2 -receptors = biological target: T1, H2 -receptors (Cavia porcellus, UniProt P47747); assay: Heart rate of isolated auricles; conditions: isolated guinea pig auricles; read-out: pD2 value, H2 -receptors (heart rate) (converted)
T1 construct: from tissue; host or cells: isolated guinea pig auricles (atria)
T1 sequence (P47747 whole entry): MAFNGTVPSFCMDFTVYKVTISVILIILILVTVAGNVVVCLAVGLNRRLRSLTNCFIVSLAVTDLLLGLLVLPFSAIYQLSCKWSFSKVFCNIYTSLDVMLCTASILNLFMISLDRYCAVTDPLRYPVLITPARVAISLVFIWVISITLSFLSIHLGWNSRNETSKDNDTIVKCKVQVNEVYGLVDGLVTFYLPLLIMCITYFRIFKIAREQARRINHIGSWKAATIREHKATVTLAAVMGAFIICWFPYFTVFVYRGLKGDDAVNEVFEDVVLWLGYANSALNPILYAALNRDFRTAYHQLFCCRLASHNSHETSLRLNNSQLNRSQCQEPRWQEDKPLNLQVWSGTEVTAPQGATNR
Procedure: Changes in the heart rate were measured, dose-response curves were plotted, and pD2 values were calculated.

Acute toxicity, rats = conditions: rat, in vivo, ip; male rats, 200-250 g, i/p
Excerpt: The results of the tests are generalized in Table 1.

total acidity = assay: Clinical reproducibility of secretory response (total acidity); assay type: in vivo, human
Excerpt: as §1
Reproducibility of Secretory Response to Introduction
of Thidazine and Histamine with Reference to Total
Acidity Values (each group of patients includes 10 persons)
^(x) Percentage of difference is the relationship of the difference
between the total acidity values registered in the first and second tests
of a patient to the greater of these values.

[4] = 0.1-0.2 mg/kg i/m, Control Period
[5] = 0.1-0.2 mg/kg i/v, Control Period
[6] = 20 mg/kg i/v daily 10 days, beginning of experiment
[7] = 20 mg/kg i/v daily 10 days, end of experiment
[8] = hypodermic, 1st hour (basal secretion)
[9] = hypodermic, 2nd hour (response to drug)
[10] = per os, 1st hour (basal secretion)
[11] = per os, 2nd hour (response to drug)

NCCc1nnc(N)s1 [Thidazine, 2-amino-5-(2-aminoethyl)-1,3,4-thiadiazole]
increase of output of hydrochloric acid after ligation of the pylorus (gastric juice): increased the output of hydrochloric acid more than threefold
HCl Output (gastric juice; control group 0.12 mEq per animal): 0.41 mEq
pH of the gastric juice (gastric juice; control group 2.2): 1.6
Irritant Action (Bulbar Conjunctiva): Negative reaction
Respiration amplitude (Respiration; 1 mg/kg i/v, Control Period): 10.0 ± 0.8 mm
Respiration rate per minute (Respiration; 1 mg/kg i/v, Control Period): 120 ± 10.0 per minute
Respiration amplitude (Respiration; 1 mg/kg i/v, Test Period): 14.0 ± 0.4 mm
Respiration rate per minute (Respiration; 1 mg/kg i/v, Test Period): 85.0 ± 6.0 per minute
Respiration amplitude (Respiration; 2 mg/kg i/v, Control Period): 110.0 ± 7.0 mm
Respiration rate per minute (Respiration; 2 mg/kg i/v, Control Period): 100.0 ± 8.0 per minute
Respiration amplitude (Respiration; 2 mg/kg i/v, Test Period): 140 ± 20.0 mm
Respiration rate per minute (Respiration; 2 mg/kg i/v, Test Period): 85.0 ± 10.0 per minute
Respiration amplitude (Respiration; [4]): 160.0 ± 6.2 mm
Respiration rate per minute (Respiration; [4]): 79.0 ± 2.0 per minute
Respiration amplitude (Respiration; 0.1-0.2 mg/kg i/m, Test Period): 160 ± 10.1 mm
Respiration rate per minute (Respiration; 0.1-0.2 mg/kg i/m, Test Period): 78.0 ± 2.3 per minute
Respiration amplitude (Respiration; [5]): 220 ± 0.3 mm
Respiration rate per minute (Respiration; [5]): 90.0 ± 0.2 per minute
Respiration amplitude (Respiration; 0.1-0.2 mg/kg i/v, Test Period): 180 ± 0.1 mm
Respiration rate per minute (Respiration; 0.1-0.2 mg/kg i/v, Test Period): 85.0 ± 0.4 per minute
Chymosin Output ([1]; 1st hour (basal secretion)): 17.3 ± 0.3 units per hour
Pepsin Output ([1]; 1st hour (basal secretion)): 4.0 ± 0.7 units per hour
Secretion, milliequivalents per hour ([1]; 1st hour (basal secretion)): 7.25 ± 0.9 Milliequivalents per hour
Chymosin Output ([1]; 2nd hour): 218.2 ± 4.0 units per hour
Pepsin Output ([1]; 2nd hour): 17.8 ± 2.3 units per hour
Secretion, milliequivalents per hour ([1]; 2nd hour): 23.9 ± 1.8 Milliequivalents per hour
Coagulability of Blood (Male guinea pigs; 20 mg/kg i/v daily 10 days): No changes
Differential Blood Count (Male guinea pigs; 20 mg/kg i/v daily 10 days): No significant changes
ECG at beginning and end of experiment (Male guinea pigs; 20 mg/kg i/v daily 10 days): No significant changes
Average weight in test group (Male guinea pigs; 20 mg/kg i/v daily 10 days, Control Period (beginning)): 220.0 ± 58 g
Average weight in test group (Male guinea pigs; 20 mg/kg i/v daily 10 days, Test Period (end)): 252.3 ± 50 g
ESR, test group (Male guinea pigs; [6]): 2 mm
Erythrocytes, test group (Male guinea pigs; [6]): 3.75 ± 0.1 mln.
Hemoglobin, test group (Male guinea pigs; [6]): 11.8 ± 0.1%
Leukocytes, test group (Male guinea pigs; [6]): 11360 ± 900 thous.
ESR, test group (Male guinea pigs; [7]): 2 mm
Erythrocytes, test group (Male guinea pigs; [7]): 3.93 ± 0.1 mln.
Hemoglobin, test group (Male guinea pigs; [7]): 12.4 ± 0.3%
Leukocytes, test group (Male guinea pigs; [7]): 9500 ± 835 thous.
effect upon growth and development and blood composition (Male guinea pigs; two animal species, 1/10 LD50): no significant effect
pathological changes in the vital organs (Male guinea pigs; two animal species, 1/10 LD50): causes no pathological changes in the vital organs
production of maximum level of hydrochloric acid secretion in the stomach (H2 -ceptors; animal (dog)): can produce a maximum level of hydrochloric acid secretion in the stomach of a dog
effect upon arterial pressure, heart rate and general behavior (H2 -ceptors; dog, 3 mg/kg (maximum secretion dose)): no significant effect
maximum dose (H2 -ceptors; dogs, intramuscular): 3.0 mg/kg
maximum hourly output of hydrochloric acid (H2 -ceptors; dogs, intramuscular): 24 mEq per hour
maximum hourly output of pepsin (H2 -ceptors; dogs, intramuscular): 110 mg per hour
minimum active dose (H2 -ceptors; dogs, intramuscular): 0.05 mg/kg
dose for maximum secretion test (gastric secretion; hypodermic or intramuscular): 1.6 mg/kg
dose for submaximum secretion test (gastric secretion; hypodermic or intramuscular): 0.8 mg/kg
secretory activity compared with histamine and pentagastrin (gastric secretion; patients, adequate doses): close to histamine and pentagastrin
effectiveness per os compared with parenteral (gastric secretion; patients, tablets or solutions): as effectively as parenterally
dose for maximum secretion test (gastric secretion; per os): 2.0 mg/kg
dose for submaximum secretion test (gastric secretion; per os): 1.5 mg/kg
Free Acidity [2]: 77.0+20 units
HCl Output [2]: 12.2 ± 0.7 milliequivalents per hour
Peak HCl Output [2]: 8.9+0.3 milliequivalents
Total Acidity [2]: 90.3+22 units
Gastric Juice [3, 8]: 87.0 ml per hour
HCl Concentration [3, 8]: 43.9 milliequivalents per liter
Gastric Juice [3, 9]: 200.5 ml per hour
HCl Concentration [3, 9]: 100.8 milliequivalents per liter
Gastric Juice, Δ% ([3]; hypodermic): +130.5%
HCl Concentration, Δ% ([3]; hypodermic): +129.6%
Hourly HCl output, Δ% ([3]; hypodermic): +471.9%
Hourly HCl output ([3]; hypodermic, 11 observations, 1st hour (basal secretion)): 8.2 milliequivalents per hour
Hourly HCl output ([3]; hypodermic, 11 observations, 2nd hour (response to drug)): 18.3 milliequivalents per hour
Gastric Juice [3, 10]: 102.1 ml per hour
HCl Concentration [3, 10]: 33.3 milliequivalents per liter
Gastric Juice [3, 11]: 227.9 ml per hour
HCl Concentration [3, 11]: 103.2 milliequivalents per liter
Gastric Juice, Δ% ([3]; per os): +123%
HCl Concentration, Δ% ([3]; per os): +209.9%
Hourly HCl output, Δ% ([3]; per os): +402.3%
Hourly HCl output ([3]; per os, 13 observations, 1st hour (basal secretion)): 4.3 milliequivalents per hour
Hourly HCl output ([3]; per os, 13 observations, 2nd hour (response to drug)): 21.6 milliequivalents per hour
Allergic Action (Arthus-Sakharov Phenomenon) (male rabbits): Negative reaction
reduction of arterial pressure (arterial pressure; anesthetized cats, 0.1 mg/kg intravenous): 30 mm of mercury
hypotensive reaction (arterial pressure; cats, doses below 0.1 mg/kg intravenous): No hypotensive reaction was observed
EC50 (H2 -receptors): 7.94 µM
LD50 (Acute toxicity, rats): 1 mg/kg
% of difference (fluctuations) of total acidity, first and second tests (total acidity; 0.7 mg/kg hypodermic): 15-42%
Average difference of total acidity (total acidity; 0.7 mg/kg hypodermic): 31%
% of difference (fluctuations) of total acidity, first and second tests (total acidity; 1.5mg/kg per os): 0-22%
Average difference of total acidity (total acidity; 1.5mg/kg per os): 7.5%
